Experimental data reported in ChEMBL document CHEMBL1139959, “Optimization of triaryl bis-sulfones as cannabinoid-2 receptor ligands” (Bioorg Med Chem Lett, 2007).

Target: Cannabinoid receptor 2 (Homo sapiens) (UniProt P34972)
Assay: Binding affinity to CB2 receptor

Chain of Cannabinoid receptor 2 (Homo sapiens) (P34972 whole entry, looked up): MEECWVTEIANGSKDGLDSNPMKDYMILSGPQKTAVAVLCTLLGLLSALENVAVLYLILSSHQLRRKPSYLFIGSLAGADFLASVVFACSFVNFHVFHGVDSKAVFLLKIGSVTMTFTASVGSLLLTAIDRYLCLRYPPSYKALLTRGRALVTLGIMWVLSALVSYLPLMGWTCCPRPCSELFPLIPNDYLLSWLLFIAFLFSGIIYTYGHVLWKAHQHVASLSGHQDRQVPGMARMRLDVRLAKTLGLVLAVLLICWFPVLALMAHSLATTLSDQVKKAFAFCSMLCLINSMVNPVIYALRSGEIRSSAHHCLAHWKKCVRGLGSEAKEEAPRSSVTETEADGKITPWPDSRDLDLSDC

| Compound | Ki |
| --- | --- |
| CCCS(=O)(=O)c1cc(Cl)ccc1S(=O)(=O)c1ccc([C@H](C)NS(C)(=O)=O)cc1 | 308 nM |
| C[C@H](NCCC(F)(F)F)c1ccc(S(=O)(=O)c2ccc(Cl)cc2S(=O)(=O)c2ccccc2F)cc1 | 17 nM |
| CNS(=O)(=O)c1cc(Cl)ccc1S(=O)(=O)c1ccc([C@H](C)NS(C)(=O)=O)cc1 | 1250 nM |
| CNc1cccc(F)c1S(=O)(=O)c1cc(Cl)ccc1S(=O)(=O)c1ccc([C@H](C)NS(=O)(=O)C(F)(F)F)cc1 | 22 nM |
| C[C@H](NS(=O)(=O)C(F)(F)F)c1ccc(S(=O)(=O)c2ccccc2S(=O)(=O)c2ccccc2F)cc1 | 25 nM |
| C[C@H](NS(=O)(=O)C(F)(F)F)c1ccc(S(=O)(=O)c2ccc(Cl)cc2S(=O)(=O)c2c(N)cccc2F)cc1 | 4.1 nM |
| C[C@H](NS(=O)(=O)C(F)(F)F)c1ccc(S(=O)(=O)c2ccc(OC(F)(F)F)cc2S(=O)(=O)c2ccccc2F)cc1 | 5 nM |
| C[C@H](NCC(F)(F)F)c1ccc(S(=O)(=O)c2ccc(Cl)cc2S(=O)(=O)c2ccccc2F)cc1 | 7 nM |
| C[C@H](NS(C)(=O)=O)c1ccc(S(=O)(=O)c2ccc(Cl)cc2S(=O)(=O)c2ccccn2)cc1 | 2.9 nM |
| C[C@H](NS(=O)(=O)C(F)(F)F)c1ccc(S(=O)(=O)c2ccc(C(F)(F)F)cc2S(=O)(=O)c2ccccc2F)cc1 | 2.5 nM |
| C[C@H](NS(C)(=O)=O)c1ccc(S(=O)(=O)c2ccc(Cl)cc2S(=O)(=O)c2cccc3cccnc23)cc1 | 204 nM |
| C[C@H](NS(=O)(=O)C(F)(F)F)c1ccc(S(=O)(=O)c2ccc(Cl)cc2S(=O)(=O)c2c(F)cccc2N2CCOCC2)cc1 | 140 nM |
| C[C@H](NS(C)(=O)=O)c1ccc(S(=O)(=O)c2ccc(Cl)cc2S(=O)(=O)c2cccc[n+]2[O-])cc1 | 119 nM |
| C[C@H](NS(=O)(=O)C(F)(F)F)c1ccc(S(=O)(=O)c2ccc(O)cc2S(=O)(=O)c2ccccc2F)cc1 | 1.3 nM |
| C[C@H](NS(C)(=O)=O)c1ccc(S(=O)(=O)c2ccc(Cl)cc2S(=O)(=O)c2ccccc2F)cc1 | 1.3 nM |
| C[C@H](NC(=O)C(F)(F)F)c1ccc(S(=O)(=O)c2ccc(Cl)cc2S(=O)(=O)c2ccccc2F)cc1 | 3.7 nM |
| C[C@H](NS(=O)(=O)C(F)(F)F)c1ccc(S(=O)(=O)c2ccc(N)cc2S(=O)(=O)c2ccccc2F)cc1 | 10 nM |
| C[C@H](NS(C)(=O)=O)c1ccc(S(=O)(=O)c2ccc(Cl)cc2S(=O)(=O)N(C)C)cc1 | 1270 nM |
| C[C@H](N)c1ccc(S(=O)(=O)c2ccc(Cl)cc2S(=O)(=O)c2ccccc2F)cc1 | 3950 nM |
| C[C@H](NS(=O)(=O)C(F)(F)F)c1ccc(S(=O)(=O)c2ccc(N3CCNCC3)cc2S(=O)(=O)c2ccccc2F)cc1 | 1100 nM |
